{
  "source": "patent US10369188B2",
  "about": "“Methods for preventing and treating pneumocystis infections” (Cidara Therapeutics, Inc., priority 2016, dated 2019)",
  "test_system": "Pneumocystis murina",
  "assay": "Pneumocystis murina prophylaxis study in dexamethasone-immunosuppressed mice (lung nuclei and asci counts)",
  "format": "in vivo, C3H/HeN mice",
  "conditions": "positive control group, 50/250 mg/kg/3x/wk, 6 weeks",
  "method": "Briefly, the vehicle was prepared by first adding 1% Tween 20 to sterile phosphate-buffered saline (PBS) and then adding DMSO for a 10% DMSO in 1% Tween 20 in sterile PBS solution. […] For the 20 mg/kg/d dose, the drug was dissolved in vehicle to a concentration of 2.4 mg/ml. The mice then received 0.48 mg in a 200 μl dose. The drug was stored at −20° C. until initiation of dosage. The drug was prepared fresh for every two days of dosing.\nC3H/HeN mice (Charles River) were infected with P. murina by intranasal inoculation of P. murina organisms at 2×106/50 μl from our liquid nitrogen repository. Prior to inoculation, the P. murina organisms were pre-incubated overnight in RPMI 1640 medium supplemented with calf serum and antibiotics to eliminate any bacterial contamination. […] Slides were made from the lung homogenates at different dilutions and stained with Diff-Quik to quantify the trophic forms and cresyl echt violet to quantify the asci.\nEfficacy is based on the reduction of organism burden between the treatment groups and the negative control group as determined by microscopic evaluation. The nuclei and asci counts for each lung are log transformed and statistical analysis is determined by the analysis of variance (ANOVA); individual groups are compared by the Student-Newman-Keuls t test for multiple comparisons using GraphPad Prism. […]",
  "data": [
    {"substance": "trimethoprim/sulfamethoxazole [TMP/SMX]", "values": [
      {"measurement": "asci observed by microscopic evaluation", "result": "no asci observed"},
      {"measurement": "nuclei seen by microscopic evaluation", "result": "no nuclei seen"}
    ]}
  ]
}
